ChEMBL document CHEMBL3886652, “Arlethynyl derivatives” (2016)

Biological target: Metabotropic glutamate receptor 5 (Homo sapiens, UniProt P41594)
Assay: Intracellular Ca2+ Mobilization Assay: A monoclonal HEK-293 cell line stably transfected with a cDNA encoding for the human mGlu5a receptor was generated; for the work with mGlu5 Positive Allosteric Modulators (PAMs), a cell line with low receptor expression levels and low constitutive receptor activity was selected to allow the differentiation of agonistic versus PAM activity. Cells were cultured according to standard protocols (Freshney, 2000) in Dulbecco's Modified Eagle Medium with high glucose supplemented with 1 mM glutamine, 10% (vol/vol) heat-inactivated bovine calf serum, Penicillin/Streptomycin, 50 μg/ml hygromycin and 15 μg/ml blasticidin (all cell culture reagents and antibiotics from Invitrogen, Basel, Switzerland). bout 24 hrs before an experiment, 5×10^4 cells/well were seeded in poly-D-lysine coated, black/clear-bottomed 96-well plates. The cells were loaded with 2.5 μM Fluo-4AM in loading buffer (1×HBSS, 20 mM HEPES) for 1 hr at 37 °C. and washed five times with loading buffer. The cells were transferred into a Functional Drug Screening System 7000 (Hamamatsu, Paris, France), and 11 half logarithmic serial dilutions of test compound at 37 °C. were added and the cells were incubated for 10-30 min. with on-line recording of fluorescence. […]
Assay type: cell-based, HEK293

Metabotropic glutamate receptor 5, sequence (P41594 whole entry): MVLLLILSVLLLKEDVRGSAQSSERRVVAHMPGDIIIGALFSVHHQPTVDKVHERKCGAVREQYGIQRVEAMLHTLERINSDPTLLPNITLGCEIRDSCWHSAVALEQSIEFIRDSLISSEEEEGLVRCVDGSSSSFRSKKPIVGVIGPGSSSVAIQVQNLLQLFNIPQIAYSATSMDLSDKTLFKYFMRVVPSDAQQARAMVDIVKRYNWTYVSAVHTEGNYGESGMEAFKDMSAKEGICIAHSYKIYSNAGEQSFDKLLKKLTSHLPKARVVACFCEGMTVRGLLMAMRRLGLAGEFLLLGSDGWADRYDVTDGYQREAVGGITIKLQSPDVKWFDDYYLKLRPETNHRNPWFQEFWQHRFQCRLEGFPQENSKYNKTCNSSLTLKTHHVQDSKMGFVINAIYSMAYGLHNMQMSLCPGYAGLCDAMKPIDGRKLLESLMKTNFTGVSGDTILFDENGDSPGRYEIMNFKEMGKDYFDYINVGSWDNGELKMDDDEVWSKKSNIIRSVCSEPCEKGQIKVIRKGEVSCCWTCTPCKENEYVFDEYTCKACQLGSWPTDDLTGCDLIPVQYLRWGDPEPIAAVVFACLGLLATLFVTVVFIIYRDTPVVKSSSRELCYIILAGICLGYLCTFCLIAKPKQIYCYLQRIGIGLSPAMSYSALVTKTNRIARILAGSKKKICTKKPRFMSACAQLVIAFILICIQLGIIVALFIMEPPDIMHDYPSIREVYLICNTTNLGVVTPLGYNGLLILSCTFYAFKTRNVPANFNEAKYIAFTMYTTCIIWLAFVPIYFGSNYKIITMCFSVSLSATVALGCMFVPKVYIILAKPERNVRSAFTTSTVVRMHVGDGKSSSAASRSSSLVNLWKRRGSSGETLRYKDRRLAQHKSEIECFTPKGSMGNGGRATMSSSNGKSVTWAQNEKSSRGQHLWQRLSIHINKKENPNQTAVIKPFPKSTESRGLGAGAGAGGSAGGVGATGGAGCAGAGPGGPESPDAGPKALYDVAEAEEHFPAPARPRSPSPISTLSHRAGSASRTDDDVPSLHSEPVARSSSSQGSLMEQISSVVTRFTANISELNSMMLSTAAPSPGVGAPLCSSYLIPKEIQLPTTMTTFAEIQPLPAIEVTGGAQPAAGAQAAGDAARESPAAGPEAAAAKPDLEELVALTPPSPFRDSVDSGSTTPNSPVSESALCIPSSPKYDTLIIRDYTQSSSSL

Row | Compound | EC50 [nM]
1 | CCN1C(=O)N(c2ccc(C#Cc3cccnc3)cn2)C2CCCCC21 (configuration not stated) | 69
2 | CN1CC(C)(C)CN(c2ccc(C#Cc3ccccc3)cn2)C1=O | 33
